According to patent US20220162163A1, “ALANINE-BASED MODULATORS OF PROTEOLYSIS AND ASSOCIATED METHODS OF USE” (Arvinas Operations, Inc., priority 2015, published 2022):

Target: T1, Androgen receptor (AR) (Homo sapiens, UniProt P10275)
T1 construct: endogenous in cells; host or cells: VCaP
T1 sequence (P10275 1-920): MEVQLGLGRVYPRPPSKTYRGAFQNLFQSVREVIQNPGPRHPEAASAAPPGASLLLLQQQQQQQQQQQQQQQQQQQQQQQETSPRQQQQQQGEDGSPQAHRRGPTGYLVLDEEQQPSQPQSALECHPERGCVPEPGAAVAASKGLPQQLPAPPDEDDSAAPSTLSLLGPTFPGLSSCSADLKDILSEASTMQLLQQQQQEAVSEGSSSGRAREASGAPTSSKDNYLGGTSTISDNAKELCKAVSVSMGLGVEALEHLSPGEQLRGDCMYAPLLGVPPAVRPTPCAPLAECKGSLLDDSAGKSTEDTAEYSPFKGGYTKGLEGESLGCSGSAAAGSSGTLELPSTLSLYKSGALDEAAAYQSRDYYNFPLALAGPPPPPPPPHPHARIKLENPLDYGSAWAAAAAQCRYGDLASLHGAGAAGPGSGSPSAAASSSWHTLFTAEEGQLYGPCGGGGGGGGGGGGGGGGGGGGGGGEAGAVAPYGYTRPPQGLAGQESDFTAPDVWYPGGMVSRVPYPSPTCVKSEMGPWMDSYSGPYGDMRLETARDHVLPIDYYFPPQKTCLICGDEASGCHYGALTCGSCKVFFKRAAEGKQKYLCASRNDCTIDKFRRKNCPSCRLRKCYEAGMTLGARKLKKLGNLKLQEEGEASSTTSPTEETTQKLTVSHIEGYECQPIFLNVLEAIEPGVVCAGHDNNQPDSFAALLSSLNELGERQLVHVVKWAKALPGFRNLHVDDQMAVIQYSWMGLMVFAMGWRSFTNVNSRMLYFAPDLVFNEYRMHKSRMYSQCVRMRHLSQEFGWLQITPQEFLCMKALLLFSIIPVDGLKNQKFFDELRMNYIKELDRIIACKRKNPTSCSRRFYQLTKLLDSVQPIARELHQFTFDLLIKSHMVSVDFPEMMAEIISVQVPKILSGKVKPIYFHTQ
Assay: Cellular assay of androgen receptor (AR) degradation (VCaP cells, ELISA)
Assay type: cell-based
Settings: 4 h; androgen receptor, VCaP cells, PROTAC concentration 1 μM, relative to DMSO control; read-out: Target protein degradation range
Procedure: Protocol of the Cellular Assay of Androgen Receptor (AR) Degradation (VCaP Cells, ELISA).
For detection Cell Signaling PathScan Sandwich Elisa Catalog #12850 Lot 11 was used. VCaP cells were cultured in ATCC DMEM+ATCC FBS and plated 40,000/well 100 μl/well in RPMI P/S with 5% CSS Omega (bovine) serum into a 96 well plate. The cells were grown for a minimum of 3 days, dosed with compounds in 0.1% DMSO (diluted with 5% CSS) and incubated with aspiration for 4 hours. 100 μl of 1× Cell Signaling lysis buffer #9803 (36 ml dH2O+4 ml Cell Signaling lysis buffer) was added. The incubation was placed on cold room shaker for 10 min at speed 8-9. 5 μl to 100 μl of Diluent was transferred to Elisa plate (0.15 ug/ml-0.075 ug/ml) and stored at 4 C overnight on cold room shaker speed 5 (gentle swirl) and then shaken next morning at 37° C. for 30 min. The preparation was washed 4×200 μl with Elisa wash buffer and aspirated with eight-channel aspirator. 100 μl/well of AR detection Ab was added after which the preparation was covered and shaken at 37° C. for 1 hr. 100 ul TMB was added, and the mixture was shaken for 5 min while under observation. When TMB turned light blue, 100 ul of Stop solution was added, and the mixture was shaken and read at 450 nm. Also read at 562 for background subtraction.

Dmax at 1 µM [%] | Compound
0 to 30 | CN[C@@H](C)C(=O)N[C@H](C(=O)N1CCC[C@H]1c1nc(-c2ccc(OCCOCCOCCNc3ccc(C(=O)N[C@H]4C(C)(C)[C@H](Oc5ccc(C#N)c(Cl)c5)C4(C)C)cc3)c3ccccc23)cs1)C1CCCCC1 [Example 30, 4-[1-(4-[2-[(2S)-1-[(2S)-2-Cyclohexyl-2-[(2S)-2-(methylamino)propanamido]acetyl]pyrrolidin-2-yl]-1,3-thiazol-4-yl]naphthalen-1-yl)-1,4,7-trioxa-10-azadecan-10-yl]-N-[(1r,3r)-3-(3-chloro-4-cyanophenoxy)-2,2,4,4-tetramethylcyclobutyl]benzamide]
0 to 30 | CN[C@@H](C)C(=O)N[C@H](C(=O)N1CCC[C@H]1c1nc(-c2ccc(OCCOCCNc3ccc(C(=O)NC4C(C)(C)C(Oc5ccc(C#N)c(Cl)c5)C4(C)C)cc3)c3ccccc23)cs1)C1CCCCC1 (stereo partly drawn) [Example 29, 4-[(2-[2-[(4-[2-[(2S)-1-[(2S)-2-cyclohexyl-2-[(2S)-2-(methylamino)propanamido]acetyl]pyrrolidin-2-yl]-1,3-thiazol-4-yl]naphthalen-1-yl)oxy]ethoxy]ethyl)amino]-N-[(1r,3r)-3-(3-chloro-4-cyanophenoxy)-2,2,4,4-tetramethylcyclobutyl]benzamide]
30 to 60 | CN[C@@H](C)C(=O)N[C@H](C(=O)N1CC[C@@H]2CCN(CCc3ccc(OCCOCCOCCOCCNc4ccc(C(=O)N[C@H]5C(C)(C)[C@H](Oc6ccc(C#N)c(Cl)c6)C5(C)C)cc4)cc3)C[C@@H]21)C1CCCCC1 (racemic) [Example 33, N-((1r,3r)-3-(3-chloro-4-cyanophenoxy)-2,2,4,4-tetramethylcyclobutyl)-4-(2-(2-(2-(2-(4-(2-(1-((S)-2-cyclohexyl-2-((S)-2-(methylamino)propanamido)acetyl)-octahydropyrrolo[2,3-c]pyridin-6-yl)ethyl)phenoxy)ethoxy)ethoxy)ethoxy)ethylamino)benzamide]
0 to 30 | CN[C@@H](C)C(=O)N[C@H](C(=O)N1CCC[C@H]1c1nc(-c2ccc(OCCOCCOCCOCCNc3ccc(C(=O)N[C@H]4C(C)(C)[C@H](Oc5ccc(C#N)c(Cl)c5)C4(C)C)cc3)c3ccccc23)cs1)C1CCCCC1 [Example 31, 4-[1-(4-[2-[(2S)-1-[(2S)-2-cyclohexyl-2-[(2S)-2-(methylamino)propanamido]acetyl]pyrrolidin-2-yl]-1,3-thiazol-4-yl]naphthalen-1-yl)-1,4,7,10-tetraoxa-13-azatridecan-13-yl]-N-[(1r,3r)-3-(3-chloro-4-cyanophenoxy)-2,2,4,4-tetramethylcyclobutyl]benzamide]
0 to 30 | CN[C@@H](C)C(=O)N[C@H](C(=O)N1CCC[C@H]1C(=O)N[C@H]1c2ccccc2C[C@H]1OCCOCCOc1ccc(C(=O)N[C@H]2C(C)(C)[C@H](Oc3ccc(C#N)c(Cl)c3)C2(C)C)cc1)C(C)(C)C [Example 38, 1-[3,3-dimethyl-2-[(2S)-2-(methylamino)propanamido]-butanoyl]-N-[(1S,2R)-2-[2-[2-(4-[[(1r,3r)-3-(3-chloro-4-cyanophenoxy)-2,2,4,4-tetramethylcyclobutyl]carbamoyl]phenoxy)ethoxy]ethoxy]-2,3-dihydro-1H-inden-1-yl]pyrrolidine-2-carboxamide]
0 to 30 | CN[C@@H](C)C(=O)N[C@H](C(=O)N1CC[C@@H]2CCN(CCc3ccc(OCCOCCOCCNc4ccc(C(=O)N[C@H]5C(C)(C)[C@H](Oc6ccc(C#N)c(Cl)c6)C5(C)C)cc4)cc3)C[C@@H]21)C1CCCCC1 (mixture of isomers) [Example 32, 4-[1-[4-(2-[1-[(2S)-2-cyclohexyl-2-[(2S)-2-(methylamino)propanamido]acetyl]-octahydro-1H-pyrrolo[2,3-c]pyridin-6-yl]ethyl)phenyl]-1,4,7-trioxa-10-azadecan-10-yl]-N-[(1r,3r)-3-(3-chloro-4-cyanophenoxy)-2,2,4,4-tetramethylcyclobutyl]benzamide]

Compound | Dmax at 1 µM [%]
CN[C@@H](C)C(=O)N[C@H](C(=O)N1CCC[C@H]1C(=O)N[C@H]1c2ccccc2C[C@H]1OCCOCCOc1ccc(N2C(=S)N(c3ccc(C#N)c(C(F)(F)F)c3)C(=O)C2(C)C)cc1)C(C)(C)C [Example 35, (S)—N-((1S,2R)-2-(2-(2-(4-(3-(4-cyano-3-(trifluoromethyl)-phenyl)-5,5-dimethyl-4-oxo-2-thioxoimidazolidin-1-yl)phenoxy)ethoxy)ethoxy)-2,3-dihydro-1H-inden-1-yl)-1-((S)-3,3-dimethyl-2-((S)-2-(methylamino)propanamido)-butanoyl)pyrrolidine-2-carboxamide] | 0 to 30

Same assay, conditions: @ 1 μM

Compound | Androgen receptor (AR) degradation in VCaP cells [%]
CN[C@@H](C)C(=O)N[C@H](C(=O)N1CCC[C@H]1C(=O)N[C@H]1c2ccccc2C[C@H]1OCCOCCOCCOc1ccc(N2C(=S)N(c3ccc(C#N)c(C(F)(F)F)c3)C(=O)C2(C)C)cc1)C(C)(C)C [drawing 255, (2S)—N-[(1S,2R)-2-(2-{2-[2-(4-{3-[4-cyano-3-(trifluoromethyl)phenyl]-5,5-dimethyl-4-oxo-2-sulfanylideneimidazolidin-1-yl}phenoxy)ethoxy]ethoxy}ethoxy)-2,3-dihydro-1H-inden-1-yl]-1-[(2 S)-3,3-dimethyl-2-[(2S)-2-(methylamino)propanamido]butanoyl]pyrrolidine-2-carboxamide] | 9
CN[C@@H](C)C(=O)N[C@H](C(=O)N1CCC[C@H]1C(=O)N[C@H]1c2ccccc2C[C@H]1OCCOCCOc1ccc(N2C(=S)N(c3ccc(C#N)c(C(F)(F)F)c3)C(=O)C2(C)C)cc1)C(C)(C)C [drawing 254, (2S)—N-[(1S,2R)-2-{2-[2-(4-{3-[4-cyano-3-(trifluoromethyl)phenyl]-5,5-dimethyl-4-oxo-2-sulfanylideneimidazolidin-1-yl}phenoxy)ethoxy]ethoxy}-2,3-dihydro-1H-inden-1-yl]-1-[(2S)-3,3-dimethyl-2-[(2S)-2-(methylamino)propanamido]butanoyl]pyrrolidine-2-carboxamide] | 29
CN[C@@H](C)C(=O)N[C@H](C(=O)N1CCC[C@H]1C(=O)N[C@H]1c2ccccc2C[C@H]1OCCOCCOCCOCCOCCOc1ccc(C(=O)N[C@H]2C(C)(C)[C@H](Oc3ccc(C#N)c(Cl)c3)C2(C)C)cc1)C(C)(C)C [(2S)-1-[(2S)-3,3-dimethyl-2-[(2S)-2-(methylamino)propanamido]butanoyl]-N-[(1S,2R)-2-{[1-(4-1{[(1r,3r)-3-(3-chloro-4-cyanophenoxy)-2,2,4,4-tetramethylcyclobutyl]carbamoyl}phenyl)-1,4,7,10,13-pentaoxapentadecan-15-yl]oxy}-2,3-dihydro-1H-inden-1-yl]pyrrolidine-2-carboxamide] | 38

Same assay, conditions: androgen receptor, VCaP cells, PROTAC concentration 1 μM, relative to DMSO control

Compound | Target protein degradation range
CN[C@@H](C)C(=O)N[C@H](C(=O)N1CCCC1C(=O)N[C@H]1c2ccccc2C[C@H]1OCCOCCOCCOc1ccc(C(=O)NC2C(C)(C)C(Oc3ccc(C#N)c(Cl)c3)C2(C)C)cc1)C(C)(C)C (stereo partly drawn) [Example 2, 1-[(2S)-3,3-dimethyl-2-[(2S)-2-(methylamino)propanamido]butanoyl]-N-[(1S,2R)-2-(2-[2-[2-(4-[[(1r,3r)-3-(3-chloro-4-cyanophenoxy)-2,2,4,4-tetramethylcyclobutyl]carbamoyl]phenoxy)ethoxy]ethoxy]ethoxy)-2,3-dihydro-1H-inden-1-yl]pyrrolidine-2-carboxamide] | C (degradation between 0% and 30%)
